# Patent publication US20240025907A1, “QUINAZOLINE PAN-KRas INHIBITORS” (Mirati Therapeutics, Inc., priority 2022, published 2024)
# Where two headings read alike, the source gives them in different places.
# What was measured:
# [1] = target: T1, KRas^G12D (Homo sapiens, UniProt P01116, G12D); test: KRas TR-FRET tracer displacement binding assay, G12D; details: 60-minute incubation
# T1 construct: Biotinylated KRas (corresponding to amino acids 1-169, produced at Accelegan Inc.); biotin (biotinylated); purchased Accelegan Inc
# T1 sequence (P01116 1-169 isoform P01116-2 G12D): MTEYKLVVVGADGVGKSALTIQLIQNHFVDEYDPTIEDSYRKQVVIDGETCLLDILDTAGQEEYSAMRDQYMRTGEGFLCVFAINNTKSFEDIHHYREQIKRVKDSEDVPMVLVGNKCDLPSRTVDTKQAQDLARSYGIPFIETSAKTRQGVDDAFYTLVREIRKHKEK
# Method: (§1) KRas^WT, KRas^G12A, KRas^G12C, KRas^G12D, KRas^G12R, KRas^G12S, KRas^G12V, KRas^G13D, or KRas^Q61H was used in the assay.
# (§2) The ability of a compound to bind to KRas was measured using a TR-FRET displacement assay. Biotinylated KRas (corresponding to amino acids 1-169, produced at Accelegan Inc.) was incubated with custom made Cy5 labelled tracer, terbium streptavidin (Cisbio Inc.) and compound (1% DMSO final) in buffer (50 mM HEPES, pH 7.5, 5 mM MgCl2, 0.005% Tween-20 and 1 mM DTT). After a 60-minute incubation at room temperature, the reaction was measured using a BMG LABTECH CLARIO star Plus via TR-FRET.
# [2] = target: T2, KRas^G12V (Homo sapiens, UniProt P01116, G12V); test: KRas TR-FRET tracer displacement binding assay, G12V; details: 60-minute incubation
# T2 construct: Biotinylated KRas (corresponding to amino acids 1-169, produced at Accelegan Inc.); biotin (biotinylated); purchased Accelegan Inc
# T2 sequence (P01116 1-169 isoform P01116-2 G12V): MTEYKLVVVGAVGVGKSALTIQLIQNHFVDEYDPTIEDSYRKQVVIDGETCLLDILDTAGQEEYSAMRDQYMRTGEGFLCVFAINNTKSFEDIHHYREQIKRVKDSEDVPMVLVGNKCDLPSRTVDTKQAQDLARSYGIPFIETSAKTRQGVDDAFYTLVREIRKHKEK
# Method: as §1, §2
# [3] = target: T3, KRas^WT (Homo sapiens, UniProt P01116); test: KRas TR-FRET tracer displacement binding assay, WT; details: 60-minute incubation
# T3 construct: Biotinylated KRas (corresponding to amino acids 1-169, produced at Accelegan Inc.); biotin (biotinylated); purchased Accelegan Inc
# T3 sequence (P01116 1-169 isoform P01116-2): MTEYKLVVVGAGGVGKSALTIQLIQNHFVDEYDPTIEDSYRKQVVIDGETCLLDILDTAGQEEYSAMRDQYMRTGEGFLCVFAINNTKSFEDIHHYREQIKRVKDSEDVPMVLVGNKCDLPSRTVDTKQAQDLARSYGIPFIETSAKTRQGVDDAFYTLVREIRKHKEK
# Method: as §1, §2
# [4] = target: T4, KRas^G12C (Homo sapiens, UniProt P01116, G12C); test: KRas TR-FRET tracer displacement binding assay, G12C; details: 60-minute incubation
# T4 construct: Biotinylated KRas (corresponding to amino acids 1-169, produced at Accelegan Inc.); biotin (biotinylated); purchased Accelegan Inc
# T4 sequence (P01116 1-169 isoform P01116-2 G12C): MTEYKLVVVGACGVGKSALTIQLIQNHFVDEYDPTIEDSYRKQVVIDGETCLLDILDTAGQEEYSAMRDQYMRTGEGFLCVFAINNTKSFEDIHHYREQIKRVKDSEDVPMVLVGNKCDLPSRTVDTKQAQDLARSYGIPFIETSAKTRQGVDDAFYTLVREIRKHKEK
# Method: as §1, §2
# [5] = target: T5, KRas^G12S (Homo sapiens, UniProt P01116, G12S); test: KRas TR-FRET tracer displacement binding assay, G12S; details: 60-minute incubation
# T5 construct: Biotinylated KRas (corresponding to amino acids 1-169, produced at Accelegan Inc.); biotin (biotinylated); purchased Accelegan Inc
# T5 sequence (P01116 1-169 isoform P01116-2 G12S): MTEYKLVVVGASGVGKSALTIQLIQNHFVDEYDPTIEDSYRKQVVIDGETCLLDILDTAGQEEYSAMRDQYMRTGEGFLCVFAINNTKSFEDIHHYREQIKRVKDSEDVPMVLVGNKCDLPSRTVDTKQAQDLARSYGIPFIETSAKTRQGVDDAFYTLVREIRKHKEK
# Method: as §1, §2
# [6] = system: KRas-mediated Phosphorylation of ERK in AsPC-1 cells; test: Cisbio HTRF pERK assay, AsPC-1 cells; format: cell-based; details: 3 hrs compound, read-out: Inhibition (HTRF IC50 nM) of KRas-mediated Phosphorylation of ERK, AsPC-1
# [7] = system: KRas-mediated Phosphorylation of ERK in H727 cells; test: Cisbio HTRF pERK assay, H727 cells; format: cell-based; details: 3 hrs compound, read-out: Inhibition (HTRF IC50 nM) of KRas-mediated Phosphorylation of ERK, H727
# [8] = system: KRas-mediated Phosphorylation of ERK in HCT116 cells; test: Cisbio HTRF pERK assay, HCT116 cells; format: cell-based; details: HCT116 cells, 3 hrs compound, read-out: Inhibition (HTRF IC50 nM) of KRas-mediated Phosphorylation of ERK, HCT116
# [9] = system: KRas-mediated Phosphorylation of ERK in A549 cells; test: Cisbio HTRF pERK assay, A549 cells; format: cell-based; details: A549 cells, 3 hrs compound, read-out: Inhibition (HTRF IC50 nM) of KRas-mediated Phosphorylation of ERK, A549
# [10] = system: KRas-mediated Phosphorylation of ERK in H460 cells; test: Cisbio HTRF pERK assay, H460 cells; format: cell-based; details: H460 cells, 3 hrs compound, read-out: Inhibition (HTRF IC50 nM) of KRas-mediated Phosphorylation of ERK, H460
# [11] = system: KRas-mediated Phosphorylation of ERK in H358 cells; test: Cisbio HTRF pERK assay, H358 cells; format: cell-based; details: H358 cells, 3 hrs compound, read-out: Inhibition (HTRF IC50 nM) of KRas-mediated Phosphorylation of ERK, H358
# [12] = system: KRas-mediated Phosphorylation of ERK in PSN1 cells; test: Cisbio HTRF pERK assay, PSN1 cells; format: cell-based; details: 3 hour compound, read-out: Inhibition (HTRF IC50 nM) of KRas-mediated Phosphorylation of ERK, PSN1
# Method: Inhibition of KRas Phosphorylation of ERK (HTRF) by Exemplary Compounds of Formula (I) • Cisbio HTRF Advanced pERK Assay Catalog #64AERPEH • Cell: MKN1, PSN1 • Procedure: • Day 1: Seed 6,000 cells/well −25 μl/well in 384-well white solid bottom plate; RPM1_10% FBS.
Compound,IC50 [1],IC50 [2],IC50 [3],IC50 [4],IC50 [5],"IC50 ([6]; Homo sapiens, ASPC1, 3 h)","IC50 ([7]; Homo sapiens, NCI-H727, 3 h)","IC50 ([8]; Homo sapiens, HCT-116, 3 h)","IC50 ([9]; Homo sapiens, A549, 3 h)","IC50 ([10]; Homo sapiens, NCI-H460, 3 h)","IC50 ([11]; Homo sapiens, NCI-H358, 3 h)","IC50 ([12]; Homo sapiens, PSN1, 3 h)",IC50 [6],IC50 [7],IC50 [9],IC50 [11],IC50 [8],IC50 [10],IC50 [12]
"CC(Oc1nc(N(C)C)c2cc(F)c(-c3ccc(F)c4sc(N)c(C#N)c34)c(F)c2n1)C12CCCN1CCC2 (single isomer, unassigned; isomer 2) [Example 178, 2-amino-4-(4-(dimethylamino)-6,8-difluoro-2-(1-(tetrahydro-1H-pyrrolizin-7a(5H)-yl)ethoxy)quinazolin-7-yl)-7-fluorobenzo[b]thiophene-3-carbonitrile (isomer 2)]",92 nM,10 nM,17 nM,20 nM,28 nM,–,–,–,–,–,–,–,–,–,–,–,–,–,–
"CC(Oc1nc(N(C)C)c2cc(F)c(-c3ccc(F)c4sc(N)c(C#N)c34)c(F)c2n1)C12CCCN1CCC2 (single isomer, unassigned; isomer 1) [Example 177, 2-amino-4-(4-(dimethylamino)-6,8-difluoro-2-(1-(tetrahydro-1H-pyrrolizin-7a(5H)-yl)ethoxy)quinazolin-7-yl)-7-fluorobenzo[b]thiophene-3-carbonitrile (isomer 1)]",107 nM,18 nM,40 nM,36 nM,42 nM,–,–,–,–,–,–,–,–,–,–,–,–,–,–
"C=Cc1cc2c(N3CCCn4nc(C(=O)N(C)C)cc4C3)nc(OC[C@@]34CCCN3C[C@H](F)C4)nc2c(F)c1-c1ccc(F)c2sc(N)c(C#N)c12 [Example 176, 5-(7-(2-amino-3-cyano-7-fluorobenzo[b]thiophen-4-yl)-8-fluoro-2-(((2R,7aS)-2-fluorotetrahydro-1H-pyrrolizin-7a(5H)-yl)methoxy)-6-vinylquinazolin-4-yl)-N,N-dimethyl-5,6,7,8-tetrahydro-4H-pyrazolo[1,5-a][1,4]diazepine-2-carboxamide]",< 2 nM,< 2 nM,< 2 nM,< 2 nM,< 2 nM,10 nM,23 nM,135 nM,72 nM,101 nM,8 nM,–,–,–,–,–,–,–,–
"CC1CN(C)CCCN1c1nc(N(C)C)c2cc(Cl)c(-c3ccc(F)c4sc(N)c(C#N)c34)c(F)c2n1 (stereo not drawn) [Example 217, 2-amino-4-(6-chloro-2-(2,4-dimethyl-1,4-diazepan-1-yl)-4-(dimethylamino)-8-fluoroquinazolin-7-yl)-7-fluorobenzo[b]thiophene-3-carbonitrile]",959 nM,75 nM,251 nM,184 nM,275 nM,–,–,–,–,–,–,–,–,–,–,–,–,–,–
"C=C1CN2CCC[C@@]2(COc2nc(N3CC4CCC(C3)N4)c3cc(Cl)c(-c4ccc(F)c5sc(N)c(C#N)c45)c(F)c3n2)C1 [Example 184, (R)-4-(4-((1R,5S)-3,8-diazabicyclo[3.2.1]octan-3-yl)-6-chloro-8-fluoro-2-(((S)-2-methylenetetrahydro-1H-pyrrolizin-7a(5H)-yl)methoxy)quinazolin-7-yl)-2-amino-7-fluorobenzo[b]thiophene-3-carbonitrile]",–,–,–,–,–,–,–,–,–,–,–,–,1 nM,610 nM,160 nM,40 nM,39 nM,82 nM,701 nM

# Second part, led by results:
IC50 [1],IC50 [2],IC50 [3],IC50 [4],IC50 [5],"IC50 ([6]; Homo sapiens, ASPC1, 3 h)","IC50 ([7]; Homo sapiens, NCI-H727, 3 h)","IC50 ([8]; Homo sapiens, HCT-116, 3 h)","IC50 ([9]; Homo sapiens, A549, 3 h)","IC50 ([10]; Homo sapiens, NCI-H460, 3 h)","IC50 ([11]; Homo sapiens, NCI-H358, 3 h)","IC50 ([12]; Homo sapiens, PSN1, 3 h)",IC50 [6],IC50 [7],IC50 [9],IC50 [11],Compound,IC50 [8],IC50 [10],IC50 [12]
2 nM,< 2 nM,< 2 nM,< 2 nM,< 2 nM,3 nM,11 nM,42 nM,22 nM,34 nM,3 nM,811 nM,–,–,–,–,"CN(C)C(=O)c1cc2n(n1)CCCN(c1nc(OC[C@@]34CCCN3C[C@H](F)C4)nc3c(F)c(-c4ccc(F)c5sc(N)c(C#N)c45)c(C4CC4)cc13)C2 [Example 207, 5-(7-(2-amino-3-cyano-7-fluorobenzo[b]thiophen-4-yl)-6-cyclopropyl-8-fluoro-2-(((2R,7aS)-2-fluorotetrahydro-1H-pyrrolizin-7a(5H)-yl)methoxy)quinazolin-4-yl)-N,N-dimethyl-5,6,7,8-tetrahydro-4H-pyrazolo[1,5-a][1,4]diazepine-2-carboxamide]",–,–,–
3 nM,3 nM,2 nM,3 nM,< 2 nM,16 nM,18 nM,25 nM,34 nM,23 nM,6 nM,1180 nM,–,–,–,–,"N#Cc1c(N)sc2c(F)ccc(-c3c(Cl)cc4c(N5CCCCC(F)C5)nc(OC[C@@]56CCCN5C[C@H](F)C6)nc4c3F)c12 (stereo partly drawn) [Example 204, 2-amino-4-(6-chloro-8-fluoro-4-(3-fluoroazepan-1-yl)-2-(((2R,7aS)-2-fluorotetrahydro-1H-pyrrolizin-7a(5H)-yl)methoxy)quinazolin-7-yl)-7-fluorobenzo[b]thiophene-3-carbonitrile]",–,–,–
14 nM,11 nM,6 nM,6 nM,6 nM,–,–,–,–,–,–,–,230 nM,357 nM,76 nM,22 nM,"N#Cc1c(N)sc2c(F)ccc(-c3c(Cl)cc4c(N5CCCOC6CC65)nc(OC[C@@]56CCCN5C[C@H](F)C6)nc4c3F)c12 (single isomer, unassigned) [Example 212]",–,–,–
9 nM,13 nM,7 nM,12 nM,11 nM,253 nM,717 nM,275 nM,326 nM,170 nM,125 nM,–,–,–,–,–,"C[C@@]1(O)CCCN(c2nc(OC[C@@]34CCCN3C[C@H](F)C4)nc3c(F)c(-c4ccc(F)c5sc(N)c(C#N)c45)c(F)cc23)C1 [Example 198, 2-amino-4-(6,8-difluoro-2-(((2R,7aS)-2-fluorotetrahydro-1H-pyrrolizin-7a(5H)-yl)methoxy)-4-((R)-3-hydroxy-3-methylpiperidin-1-yl)quinazolin-7-yl)-7-fluorobenzo[b]thiophene-3-carbonitrile]",–,–,–
9 nM,4 nM,11 nM,8 nM,5 nM,–,–,–,–,–,–,–,761 nM,767 nM,398 nM,160 nM,"N#Cc1c(N)sc2c(F)ccc(-c3c(Cl)cc4c(N5CCCOC6CC65)nc(OC[C@@]56CCCN5C[C@H](F)C6)nc4c3F)c12 (single isomer, unassigned) [Example 213]",–,–,–
–,–,–,–,–,501 nM,226 nM,661 nM,307 nM,306 nM,82 nM,4790 nM,–,–,–,–,"CN(c1nc(OC[C@@]23CCCN2C[C@H](F)C3)nc2c(F)c(-c3ccc(F)c4sc(N)c(C#N)c34)c(Cl)cc12)C1CC1 [Example 203, 2-amino-4-(6-chloro-4-(cyclopropyl(methyl)amino)-8-fluoro-2-(((2R,7aS)-2-fluorotetrahydro-1H-pyrrolizin-7a(5H)-yl)methoxy)quinazolin-7-yl)-7-fluorobenzo[b]thiophene-3-carbonitrile]",–,–,–
